In the NIST ThermoML archive (doi:10.1016/j.jct.2008.09.002):

Assays:
[1] = xn = mol fraction of the nth substance listed; settings: 101.3 kPa, Liquid, Vibrating tube method
[2] = molar heat capacity at constant pressure; xn = mol fraction of the nth substance listed; settings: 101.3 kPa, Liquid, Small sample (50 mg) DSC
[3] = excess molar enthalpy (molar enthalpy of mixing); xn = mol fraction of the nth substance listed; settings: 303.15 K, 101.3 kPa, Liquid, Calvet calorimetry

CCCCCCn1cc[n+](C)c1.F[B-](F)(F)F [1-hexyl-3-methylimidazolium tetrafluoroborate] + C[N+](=O)[O-]
Settings | mass density, [1] [kg/m3] | molar heat capacity at constant pressure, [2] [J/K/mol]
293.15 K, x1 = 0.098 | 1148.7 | 136.3
293.15 K, x1 = 0.1933 | 1150.7 | 166.4
293.15 K, x1 = 0.3062 | 1151.2 | 202.6
293.15 K, x1 = 0.3988 | 1151.1 | 232.4
293.15 K, x1 = 0.4936 | 1150.9 | 262.8
293.15 K, x1 = 0.5941 | 1150.5 | 295.4
293.15 K, x1 = 0.5973 | 1150.5 | –
293.15 K, x1 = 0.6839 | 1150.1 | –
293.15 K, x1 = 0.6917 | 1150 | 326.6
293.15 K, x1 = 0.7702 | 1149.8 | 351.4
293.15 K, x1 = 0.7767 | 1149.7 | –
293.15 K, x1 = 0.786 | 1149.6 | –
293.15 K, x1 = 0.8514 | 1149.3 | –
293.15 K, x1 = 0.8665 | 1149.2 | 382.6
293.15 K, x1 = 0.8727 | 1149.2 | –
298.15 K, x1 = 0.098 | 1143.2 | 136.7
298.15 K, x1 = 0.1933 | 1145.8 | 167
298.15 K, x1 = 0.3062 | 1146.7 | 203.5
298.15 K, x1 = 0.3988 | 1146.9 | 233.4
298.15 K, x1 = 0.4936 | 1146.8 | 264
298.15 K, x1 = 0.5941 | 1146.6 | 296.8
298.15 K, x1 = 0.5973 | 1146.6 | –
298.15 K, x1 = 0.6839 | 1146.4 | –
298.15 K, x1 = 0.6917 | 1146.2 | 328.3
298.15 K, x1 = 0.7702 | 1146.1 | 353.4
298.15 K, x1 = 0.7767 | 1146 | –
298.15 K, x1 = 0.786 | 1146 | –
298.15 K, x1 = 0.8514 | 1145.8 | –
298.15 K, x1 = 0.8665 | 1145.7 | 384.8
298.15 K, x1 = 0.8727 | 1145.7 | –
303.15 K, x1 = 0.098 | 1137.7 | 137.2
303.15 K, x1 = 0.1933 | 1140.9 | 167.7
303.15 K, x1 = 0.3062 | 1142.3 | 204.4
303.15 K, x1 = 0.3988 | 1142.7 | 234.5
303.15 K, x1 = 0.4936 | 1142.8 | 265.4
303.15 K, x1 = 0.5941 | 1142.8 | 298.3
303.15 K, x1 = 0.5973 | 1142.8 | –
303.15 K, x1 = 0.6839 | 1142.6 | –
303.15 K, x1 = 0.6917 | 1142.5 | 330
303.15 K, x1 = 0.7702 | 1142.5 | 355.4
303.15 K, x1 = 0.7767 | 1142.4 | –
303.15 K, x1 = 0.786 | 1142.4 | –
303.15 K, x1 = 0.8514 | 1142.3 | –
303.15 K, x1 = 0.8665 | 1142.1 | 387
303.15 K, x1 = 0.8727 | 1142.2 | –
308.15 K, x1 = 0.098 | 1132.1 | 137.7
308.15 K, x1 = 0.1933 | 1136 | 168.4
308.15 K, x1 = 0.3062 | 1137.8 | 205.3
308.15 K, x1 = 0.3988 | 1138.5 | 235.6
308.15 K, x1 = 0.4936 | 1138.8 | 266.7
308.15 K, x1 = 0.5941 | 1138.9 | 299.8
308.15 K, x1 = 0.5973 | 1138.9 | –
308.15 K, x1 = 0.6839 | 1138.9 | –
308.15 K, x1 = 0.6917 | 1138.8 | 331.7
308.15 K, x1 = 0.7702 | 1138.9 | 357.3
308.15 K, x1 = 0.7767 | 1138.8 | –
308.15 K, x1 = 0.786 | 1138.8 | –
308.15 K, x1 = 0.8514 | 1138.7 | –
308.15 K, x1 = 0.8665 | 1138.6 | 389.1
308.15 K, x1 = 0.8727 | 1138.6 | –
313.15 K, x1 = 0.098 | 1126.6 | 138.3
313.15 K, x1 = 0.1933 | 1131.1 | 169.2
313.15 K, x1 = 0.3062 | 1133.4 | 206.3
313.15 K, x1 = 0.3988 | 1134.3 | 236.9
313.15 K, x1 = 0.4936 | 1134.8 | 268.2
313.15 K, x1 = 0.5941 | 1135.1 | 301.3
313.15 K, x1 = 0.5973 | 1135.1 | –
313.15 K, x1 = 0.6839 | 1135.2 | –
313.15 K, x1 = 0.6917 | 1135.1 | 333.4
313.15 K, x1 = 0.7702 | 1135.3 | 359.2
313.15 K, x1 = 0.7767 | 1135.2 | –
313.15 K, x1 = 0.786 | 1135.2 | –
313.15 K, x1 = 0.8514 | 1135.2 | –
313.15 K, x1 = 0.8665 | 1135.1 | 391.3
313.15 K, x1 = 0.8727 | 1135.1 | –
318.15 K, x1 = 0.098 | 1121 | 138.8
318.15 K, x1 = 0.1933 | 1126.2 | 169.9
318.15 K, x1 = 0.3062 | 1129 | 207.3
318.15 K, x1 = 0.3988 | 1130.2 | 238.1
318.15 K, x1 = 0.4936 | 1130.9 | 269.6
318.15 K, x1 = 0.5941 | 1131.3 | 302.8
318.15 K, x1 = 0.5973 | 1131.3 | –
318.15 K, x1 = 0.6839 | 1131.5 | –
318.15 K, x1 = 0.6917 | 1131.4 | 335
318.15 K, x1 = 0.7702 | 1131.6 | 361.1
318.15 K, x1 = 0.7767 | 1131.6 | –
318.15 K, x1 = 0.786 | 1131.6 | –
318.15 K, x1 = 0.8514 | 1131.7 | –
318.15 K, x1 = 0.8665 | 1131.6 | 393.4
318.15 K, x1 = 0.8727 | 1131.6 | –

[3]
Settings | excess molar enthalpy [kcal/mol]
x1 = 0.1 | -0.0174
x1 = 0.2074 | -0.0296
x1 = 0.3028 | -0.0349
x1 = 0.4096 | -0.0382
x1 = 0.5095 | -0.038
x1 = 0.6072 | -0.0342
x1 = 0.7148 | -0.027
x1 = 0.7891 | -0.0225
x1 = 0.8821 | -0.012
